Calls of active or inactive are those of the source. How the calls were made is not given here.
Test system: CCRIS mutagenicity, Ames/micronucleus/aberration tests
Assay: CCRIS mutagenicity studies
Conditions: Test System: AMES SALMONELLA TYPHIMURIUM

Measured: mutagenic call

CC=C(C)C#N
inactive: Strain/Indicator: TA97, Metabolic Activation: HAMSTER, LIVER, S-9, AROCLOR 1254 (10 OR 30%), Method: PREINCUBATION inactive; negative | Strain/Indicator: TA97, Metabolic Activation: HAMSTER, LIVER, S-9, AROCLOR 1254 (30%), Method: PREINCUBATION inactive; negative | Strain/Indicator: TA97, Metabolic Activation: NONE, Method: PREINCUBATION inactive; negative | Strain/Indicator: TA97, Metabolic Activation: RAT, LIVER, S-9, AROCLOR 1254 (10%), Method: PREINCUBATION inactive; negative | Strain/Indicator: TA98, Metabolic Activation: HAMSTER, LIVER, S-9, AROCLOR 1254 (10%), Method: PREINCUBATION inactive; negative | Strain/Indicator: TA98, Metabolic Activation: HAMSTER, LIVER, S-9, AROCLOR 1254 (30%), Method: PREINCUBATION inactive; negative | Strain/Indicator: TA98, Metabolic Activation: NONE, Method: PREINCUBATION inactive; negative | Strain/Indicator: TA98, Metabolic Activation: RAT, LIVER, S-9, AROCLOR 1254 (10%), Method: PREINCUBATION inactive; negative | Strain/Indicator: TA98, Metabolic Activation: RAT, LIVER, S-9, AROCLOR 1254 (30%), Method: PREINCUBATION inactive; negative | Strain/Indicator: TA100, Metabolic Activation: HAMSTER, LIVER, S-9, AROCLOR 1254 (10%), Method: PREINCUBATION inactive; negative | Strain/Indicator: TA100, Metabolic Activation: HAMSTER, LIVER, S-9, AROCLOR 1254 (30%), Method: PREINCUBATION inactive; negative | Strain/Indicator: TA100, Metabolic Activation: NONE, Method: PREINCUBATION inactive; negative | Strain/Indicator: TA100, Metabolic Activation: RAT, LIVER, S-9, AROCLOR 1254 (10%), Method: PREINCUBATION inactive; negative | Strain/Indicator: TA100, Metabolic Activation: RAT, LIVER, S-9, AROCLOR 1254 (30%), Method: PREINCUBATION inactive; negative | Strain/Indicator: TA1535, Metabolic Activation: HAMSTER, LIVER, S-9, AROCLOR 1254 (10 OR 30%), Method: PREINCUBATION inactive; negative | Strain/Indicator: TA1535, Metabolic Activation: NONE, Method: PREINCUBATION inactive; negative | Strain/Indicator: TA1535, Metabolic Activation: RAT, LIVER, S-9, AROCLOR 1254 (10%), Method: PREINCUBATION inactive; negative | Strain/Indicator: TA1537, Metabolic Activation: HAMSTER, LIVER, S-9, AROCLOR 1254 (30%), Method: PREINCUBATION inactive; negative | Strain/Indicator: TA1537, Metabolic Activation: NONE, Method: PREINCUBATION inactive; negative | Strain/Indicator: TA1537, Metabolic Activation: RAT, LIVER, S-9, AROCLOR 1254 (30%), Method: PREINCUBATION inactive; negative

ClCc1ccncc1
inactive: Strain/Indicator: TA97, Metabolic Activation: NONE, Method: STANDARD PLATE inactive; negative | Strain/Indicator: TA97, Metabolic Activation: RAT, LIVER, S-9, AROCLOR 1254, Method: STANDARD PLATE inactive; negative | Strain/Indicator: TA98, Metabolic Activation: NONE, Method: STANDARD PLATE inactive; negative | Strain/Indicator: TA98, Metabolic Activation: RAT, LIVER, S-9, AROCLOR 1254, Method: STANDARD PLATE inactive; negative | Strain/Indicator: TA100, Metabolic Activation: NONE, Method: STANDARD PLATE inactive; negative | Strain/Indicator: TA102, Metabolic Activation: NONE, Method: STANDARD PLATE inactive; negative | Strain/Indicator: TA102, Metabolic Activation: RAT, LIVER, S-9, AROCLOR 1254, Method: STANDARD PLATE inactive; negative
